In patent publication US8236984B2, “Compound and use thereof in the treatment of amyloidosis” (Pentraxin Therapeutics Ltd., priority 2007, dated 2012):

How the values were obtained:
[1] = biological target: T1, native wild type transthyretin (Homo sapiens, UniProt P02766); test: Gel filtration (Superdex 200) of transthyretin-ligand complexes; format: binding; details: for A280/A330 ratio of main component eluting at 14.4 ml: 2 nanomoles transthyretin incubated 1 h with 1 μl of 4 mM ligand in DMSO, PBS; for dissociation of ligand from the complex during gel filtration: after 100 volume solvent exchanges
T1 construct: isolated from pooled normal human plasma, was obtained from Scipac; purchased Scipac Ltd, Sittingbourne, Kent, UK; host or cells: pooled normal human plasma
Experimental: 1.3 Gel filtration. Native transthyretin was eluted with either PBS or 150 mM ammonium bicarbonate (pH 7.6) from a Superdex 200 (30×1.0 cm) column, run on an ÅKTA Explorer system, as a UV absorbing peak (A280/A330˜30 to 50:1) with Ve 14.4 ml (FIG. 1). A minor (<5%) higher molecular weight component eluting at 12.5 ml was always seen.
3.1.1. Binding of 4ajm15 and mds84 by transthyretin. One μl (5.3 nmol) of a concentrated (5.3 mM) solution of 4ajm15 in DMSO was added to 3.8 nmol of transthyretin in 100 μl PBS (1.4 fold molar excess of ligand) and incubated at room temperature for 30 min. The sample was chromatographed on Superdex 200, where the transthyretin-4ajm15 complex eluted at 14.4 ml, with a reduced A280/A330 ratio (˜5:1) consistent with binding. A similar result was obtained with transthyretin and 4ajm15 when chromatography was undertaken in volatile ammonium bicarbonate buffer. A similar result was also obtained when mds84 (2 nmol) was first dried into a tube and then resuspended in 5 μl of DMSO before adding the protein solution. In further experiments, 2 nanomoles of native wild type transthyretin (Scipac) were incubated in 55 μl of PBS for 1 h with either 1 μl DMSO (control) or 1 μl of a 4 mM solution in DMSO of mds84 or 4ajm15. Samples were chromatographed on a Superdex 200 column (30×1 cm) in PBS at 0.5 ml/min, with 0.5 ml fractions collected (FIG. 1). […] The full UV spectra of the main components were determined in each case and were consistent with a transthyretin:ligand ratio of ˜1:0.9.

[2] = biological target: T2, wild type transthyretin isolated from plasma (Homo sapiens, UniProt P02766); test: Competition with 125I-T4 for binding by pure transthyretin; details: 125 nM transthyretin, trace 125I-T4, pH 8.0, overnight 4° C.
T2 construct: Native tetrameric transthyretin was purified from fractionated human plasma; from tissue; host or cells: human plasma

[3] = biological target: wild type transthyretin (Homo sapiens, UniProt P02766); test: Differential scanning calorimetry of transthyretin with ligand; format: binding; set-up: isolated from pooled normal human plasma, was obtained from Scipac; purchased Scipac Ltd, Sittingbourne, Kent, UK; host or cells: pooled normal human plasma
[4] = biological target: T3, transthyretin (Homo sapiens, UniProt P02766); test: Stopped flow analysis of the kinetics of binding by transthyretin; details: 2 μM protein, 10 μM ligand, PBS pH 7.4, 5% DMSO, 20° C.
T3 construct: Native tetrameric transthyretin was purified from fractionated human plasma; from tissue; host or cells: human plasma
Experimental: 3.2.2 Stopped flow analysis of the kinetics of 4ajm15 binding by transthyretin. The kinetics of transthyretin binding to 4ajm15 were evaluated with a Bio-Logic SFM-300 stopped flow device coupled to a fluorescence detection system (Claix, France) using a cell path length of 1.5 mm. The excitation wavelength was 280 nm and emission was measured at wavelengths greater than 320 nm using a cut off filter. The experiments were performed at 20° C. in PBS pH 7.4 containing 5% DMSO with a final protein concentration of 2 μM in the presence of 10 μM 4ajm15. The kinetic traces fit well to a single-exponential function with a time constant of 2.17 s (±0.02 s). Transthyretin thus binds 4ajm15 very rapidly at physiological pH with the plateau of the quenching reaction being reached after only ˜11 sec.

[5] = biological target: T3, transthyretin; test: Analytical ultracentrifugation (sedimentation velocity and equilibrium); format: biochemical
Experimental: 4.1. Analytical ultracentrifugation. Sedimentation velocity and equilibrium analytical centrifugation experiments were performed at 20° C. on a Beckman XL-I instrument equipped with an An50Ti rotor in which both absorbance (recorded at a wavelength of 280 nm) and interference scans were recorded simultaneously. Sedimentation analyses were performed at pH 4.4 by incubating the protein (3.6 μM) for 72 h under the conditions of the stagnant transthyretin aggregation-inhibition assay (Petrassi et al., 2000) in presence of the ligand (3.6 μM). […] Sedimentation velocity data were acquired over 8 h at rotor speed of 42,000 rpm in two-sector cells with solution column heights of 12 mm. Absorbance values were modelled as a continuous distribution of sedimentation coefficients, c(s) (Schuck, 2000) using the software SEDFIT (Schuck, 2005). Sedimentation equilibrium measurements of transthyretin bound to the ligand, in the same conditions used for the sedimentation velocity analysis, were acquired using six-sector cells in an AnTi 50 rotor with column heights of 2 mm at rotor speed of 17,000 rpm until equilibrium was reached as shown by the perfect overlay of runs measured at intervals of 5 h. A final run at 42,000 rpm was performed at the end of the experiment to determine the background levels for use in curve fitting. Data analysis was performed using Beckman software provided as an add-on to Origin Version 4.1 (Microcal Inc.) for which the partial specific volume was calculated to be 0.7353 ml/g from the amino acid sequence (Perkins, 1986). The buffer density and viscosity were calculated using the program […] (Laue et al., 1992). […] Sedimentation equilibrium analysis of transthyretin in the presence of the ligand was entirely consistent with a single species of mass 55,784±107.87 Da, in good agreement with the calculated molecular mass of tetrameric wild type transthyretin with bound 4ajm15 (55794 Da). […]

[6] = five fold molar excess of ligand

Row | A280/A330 ratio of main component eluting at 14.4 ml [1] | dissociation of ligand from the complex during gel filtration [1] | IC50 [2] | Tm of wild type transthyretin with the ligand [3, 6] | increase in Tm of wild type transthyretin [3, 6] | time constant of binding (single-exponential fit) [4] | time to plateau of the quenching reaction [4] | sedimentation coefficient of transthyretin with bound ligand ([5]; 3.6 μM protein, 3.6 μM ligand, 72 h 37° C., pH 4.4) | mass of single species by sedimentation equilibrium ([5]; 3.6 μM protein, 3.6 μM ligand, pH 4.4) | quaternary structure under tetramer-dissociating conditions ([5]; 72 h at 37° C. and pH 4.4) | midpoint of thermal denaturation (Tm) in the presence of ligand ([3]; preliminary DSC, 0.02 mM tetramer, 0.2 mM ligand, PBS pH 7.4, 2% DMSO, transthyretin alone 99.5) | SMILES
1 | ~4.6 | negligible dissociation | 150 ± 25 nM | 107.5 °C | 6.2 °C | – | – | – | – | – | – | O=C(O)c1ccccc1Nc1cc(Cl)c(OCCCCCCCOc2c(Cl)cc(Nc3ccccc3C(=O)O)cc2Cl)c(Cl)c1 [mds84, 2,2′-(4,4′-(heptane-1,7-diylbis(oxy))bis(3,5-dichloro-4,1-phenylene))bis(azanediyl)dibenzoic acid]
2 | ~4.6 | negligible dissociation | 200 ± 70 nM | – | – | 2.17 s | ~11 s | 3.7 S | 55,784±107.87 Da | remains tetrameric | 103.6 °C | O=C(O)c1ccccc1Nc1cc(Cl)c(OCCCCCCCCCCCOc2c(Cl)cc(Nc3ccccc3C(=O)O)cc2Cl)c(Cl)c1 [4ajm15, 2,2′-(4,4′-(undecane-1,11-diylbis(oxy))bis(3,5-dichloro-4,1-phenylene))bis(azanediyl)dibenzoic acid]
